From patent CN102775413A, “氨基取代吴茱萸次碱类似物及其合成方法与在制备抗肥胖症药物中的应用” (Sun Yat Sen University, priority 2012, dated 2012)
“Also recorded” adds a separate entry of the source.

What was measured:
[1] = test system: cells (细胞); experiment: Reduction of fat accumulation (general statement, test not specified); assay type: cell-based; settings: inventors' finding
[2] = test system: FAO rat hepatocytes (FAO大鼠肝细胞); experiment: High-fructose-induced fat accumulation in FAO hepatocytes (triglyceride kit and BCA protein kit); assay type: cell-based; settings: 24 h, Fig. 5
[3] = Precipitation from culture medium, microscopy, 15 μM (Example 10, Fig. 4); assay type: physicochemical; settings: incubated with 3T3-L1 cells 6 days
[4] = Precipitation from culture medium, microscopy, 20 μM (Example 11, Fig. 6); assay type: physicochemical; settings: 24 h incubation with cells
[5] = test system: 3T3-L1 mouse adipocytes (3T3-L1小鼠脂肪细胞); experiment: Triglyceride content of differentiating 3T3-L1 adipocytes (triglyceride assay kit); assay type: cell-based

In the case of `O=c1c2ccccc2nc2n1CCc1c-2[nH]c2ccccc12` [R1, 吴茱萸次碱], the “reduction of fat accumulation in cells” value [1] is reported as “能减少细胞的脂肪蓄积”, the inhibition at 10 µM ([2]; Hepatocyte, FAO rat hepatocytes, 10 μM, 25 mM fructose, triglyceride per mg protein vs control, mean of three independent experiments, read-out: reduction of high-fructose-induced fat accumulation) is reported as 72% and the “concentration dependence of inhibition of high-fructose-induced fat accumulation in FAO rat hepatocytes” value ([2]; R1 0, 0.3, 10, 20 μM, R17 0, 0.1, 0.3, 10 μM) is reported as “浓度依赖性地抑制; also recorded: 浓度依赖性地减少”. For the same compound, the “precipitation from culture medium” value [3] was “从培养基中析出来”, the “precipitation from culture medium” value [4] was “会从培养基中析出; also recorded: 从培养基中析出来” and the “effect on triglyceride content of 3T3-L1 cells vs DMSO control (DM)” value ([5]; 1 μM, Fig. 1, significance vs DM) was “显著性地降低”. The inhibition at 3 µM ([5]; Mus musculus, 144 h, 3T3-L1 cells, 3 μM, Day 6, vs DMSO control, mean of three independent experiments, Fig. 2, read-out: reduction of triglyceride content) was 34% and the “concentration dependence of reduction of fat accumulation in 3T3-L1 cells” value ([5]; R1 0, 0.3, 1, 3, 10, 15 μM, R17 and R18 0, 0.03, 0.1, 0.3, 1, 3 μM, Fig. 2) was “浓度依赖性地减少”.
